We go through one molecule from US11773086B2, “Fungal modulators” (TRUSTEES OF BOSTON UNIVERSITY, priority 2020, dated 2023).

The subject of data set [1] is C. auris. The experiment in a line: Sterol composition by LC-MS. Particulars: 18 hours. Type of data set: cell-based, Candida auris. The text has this: FIGS. 3A-3B, and 4A-4B illustrate azoffluxin increases fluconazole (FLC) bioavailability by inhibiting Cdr1-mediated efflux in C. auris, as described above. FIG. 3A depicts the relative abundance of specific sterols determined in C. auris after an 18-hour treatment with the respective compounds (⋅ indicates combo treatment concentrations) using LC-MS. Values are plotted relative to the internal standard of cholesterol and error bars indicate standard deviation between technical triplicates. Significance was determined by an unpaired student t-test of each condition to untreated, (*) indicates a p-value<0.05 and (**) indicates a p-value<0.01. FIG. 3B depicts the intracellular concentrations of FLC and azoffluxin measured after treatment for 1 hour (conditions as in FIG. 3A) Error bars indicate standard deviation between technical triplicates. Significance was determined by an unpaired student t-test, (**) indicates a p-value<0.01. FIG. 4A depicts the quantified relative expression of a panel of putative efflux pumps in C. auris Ci6684. Expression of CDR1 (B9J08_000164), MDR1 (B9J08_003981), CDR4-1 (B9J08_000479), CDR4-2 (B9J08_002451), SNQ2-1 (B9J08_001125), and SNQ2-2 (B9J08_004452) was measured by RT-qPCR. […] FIG. 4B depicts expression of CDR1 (B9J08_000164) and CDR4-1 (B9J08_000479) measured by quantitative real-time PCR (RT-qPCR). […]

Data set [2] relates to 293T cells. Briefly: 293T cells grown without C. auris (luciferase signal). The format is cell-based, human. Particulars: 293T cells without C. auris, any treatment condition. On the procedure:
FIG. 10A depicts mammalian embryonic kidney (293T) cells expressing luciferase used to quantify mammalian cell growth in co-culture. Mammalian cells were seeded in 384-well plates in DMEM medium at 5×10^5 cells/mL overnight. After 24 hours the indicated concentration of compound (⋅ indicates combo treatment concentrations) was added along with 2.5×10^3 cells/mL of C. auris. Co-cultures were incubated for 48 hours at 37° C. and then the luminescence was measured as an output of mammalian cell growth. Error represents standard deviation between technical quadruplicates, (***) indicates a p-value<0.001 between 293T cells alone and co-culture growth for each condition. […] FIG. 10C depicts checkerboard assays performed as described in FIG. 2B with C. auris Clade IV isolate B11801. Relative growth was measured after 24 hours using OD600 and normalized to no-drug control wells (see color bar). The FICI calculated for each checkerboard is shown in the top right of each plot, with values<0.5 indicating synergy. FIG. 10D depicts kidney fungal burden (CFU) in mice from each treatment group (n=3) that had been infected with C. auris B11801. […] The significance of differences between combination treatment and treatment with each compound alone was determined by two-tailed unpaired student t-test, (***) p-value<0.001. […]

For `C=C(C)C[C@@H](O)COc1cc2c(cc1C1(c3cc4c(cc3OC[C@H](O)CC(=C)C)OCO4)C(=O)Nc3cc(F)ccc31)OCO2` [CMLD012336], the “increase in 14-α-methyl-3,6-diol” value in data set [1] (azoffluxin + low fluconazole vs low fluconazole alone) was determined as 4 fold. Further, the “abundance of ergosterol, lanosterol, 14-α-methyl-3,6-diol” value in data set [1] (azoffluxin alone vs untreated) is on record as “No significant increases”. In data set [2], the mammalian cytotoxicity result is “no detectable mammalian cytotoxicity”.
